Source: US9005670B2, “Use of histone acetyltransferase inhibitors as novel anti-cancer therapies” (The Johns Hopkins University, priority 2010, dated 2015)

Legend:
p300 HAT [1] = target: T1, p300 HAT (Homo sapiens, UniProt Q09472, DEL1529-1560/M1652G); experiment: direct radioactive p300 HAT assay (14C-acetyl-CoA transfer to H4-15); type: biochemical; details: for weakening of p300 inhibitory potency compared with C646 (relative IC50): range of concentrations
T1 construct: A variant of the HAT domain of p300 (residues 1287 to 1652) was expressed as a fusion; a C-terminal peptide corresponding to residues 1653-1666 of p300; made in house; host or cells: E. coli BL21(RIL)-DE3; C-terminal peptide by solid phase synthesis
T1 sequence (Q09472 with tags, fused parts or gaps DEL1529-1560/M1652G limits assumed): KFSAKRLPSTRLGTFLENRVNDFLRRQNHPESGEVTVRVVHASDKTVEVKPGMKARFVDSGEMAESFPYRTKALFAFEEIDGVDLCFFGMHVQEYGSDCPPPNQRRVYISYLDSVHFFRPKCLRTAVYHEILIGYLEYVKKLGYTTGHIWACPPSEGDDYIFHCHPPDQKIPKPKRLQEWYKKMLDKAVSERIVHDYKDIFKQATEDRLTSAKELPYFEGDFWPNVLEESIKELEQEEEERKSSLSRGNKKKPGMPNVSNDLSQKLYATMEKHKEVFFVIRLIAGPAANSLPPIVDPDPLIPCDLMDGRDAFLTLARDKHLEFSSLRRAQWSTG
Description: In this assay, production of ^14C-labeled Ac-H4-15 is monitored electrophoretically. Reactions were performed in 20 mM HEPES, pH 7.9, and contained 5 mM DTT, 80 μM EDTA, 40 μg/mL BSA, 100 μM H4-15, and 5 nM p300. […] Reactions were incubated at 30° C. for 10 minutes, initiated with addition of a 1:1 mixture of 12 C-acetyl-CoA and 14 C-acetyl-CoA to a final concentration of 20 μM, and allowed to run for 10 min at 30° C. Reactions are then quenched with addition of 14% SDS (w/v). Turnover was kept below 10%. All compounds were screened in duplicate. Samples were then loaded onto a 16% Tris-Tricine gel along with a BSA standard and run at 140 V for 90 minutes. Gels were washed and dried, and exposed in a PhosphorImager cassette for ˜2 days. Bands corresponding to Ac-H4-15 were then quantified using ImageQuant.
Reactions were performed in 20 mM HEPES, pH 7.9, and contained 5 mM DTT, 80 μM EDTA, 40 μg/mL BSA, 100 μM […], and 5 nM p300. Putative inhibitors were added over a range of concentrations, with DMSO concentration kept constant (<5%). Reactions were incubated at 30° C. for 10 minutes, then initiated with addition of a 1:1 mixture of ^12C-acetyl-CoA and ^14C-acetyl-CoA to 20 μM. After […] at 30° C., reactions were quenched with 14% SDS (w/v). All concentrations were screened in duplicate. Gels were run, washed, dried, and exposed to a PhosphorImager plate as described above, and production of Ac-H4-15 quantified. Data were fit to the following equation to obtain IC50s. […]

p300 HAT [2] = target: T1, p300 HAT; experiment: coupled spectrophotometric p300 HAT assay; type: biochemical; details: for % inhibition in initial screen: compounds at 100 μM
Description: After completing the computational docking screen, the top 194 inhibitors were tested in a convenient spectrophotometric assay as described in Kim et al., Anal. Biochem. 280, 308 (2000). In the coupled spectrophotometric assay, the acetyltransferase reaction product CoASH becomes a substrate for alpha-ketoglutarate dehydrogenase, which converts NAD to NADH, resulting in an increase of UV absorbance at 340 nm. Screening conditions for these p300 HAT assays included substrate concentrations of 200 μM histone H4-15 peptide and 50 μM acetyl-CoA, and potential small molecule inhibitors tested at 100 μM. […] To distinguish inhibitory effects related to blockade of coupling enzyme rather than p300, assays were repeated using increased (2-fold) alpha-ketoglutarate dehydrogenase. […] The remaining compounds were then assessed in a protein aggregation-related inhibition assay as described in Feng et al., Nat. Chem. Biol. 1, 146 (2005). […] In this radioactive p300 HAT assay, ^14C transfer from ^14C-acetyl-CoA into peptide substrate is directly measured using Tris-Tricine SDSPAGE and phosphorimage analysis.
The top 194 p300 HAT inhibitor candidates identified by VLS were screened using a coupled spectrophotometric assay. In this assay, CoASH produced by the p300 reaction is used by α-ketoglutarate dehydrogenase (α-KGDH) to produce NADH, which can be monitored spectrophotometrically at 340 nm. Reactions were performed at 30° C. in […] HEPES, pH 7.9, and contained 200 μM H4-15, 200 μM TPP, 5 mM MgCl 2, 1 mM DTT, 50 μg/mL BSA, 200 μM NAD, 2.4 mM α-ketoglutarate, 200 μM acetyl-CoA, 0.1 units α-KGDH, and 100 nM p300. DMSO was kept at a constant 3.3%, and candidate compounds were screened at 100 μM. Reaction mixtures were incubated at 30° C. for 10 min prior to initiation. Reactions were initiated with addition of H4-15 and followed over the linear portion of the progress curve, which provides the initial velocity via linear regression. Percent inhibition was determined by comparison with velocity without candidate added. […] To ensure that compounds were not inhibiting α-KGDH instead of p300, compounds were assayed with 0.2 units of α-KGDH, two times the amount used in the initial screen. To ensure that compounds were not inhibiting through nonspecific aggregation, compounds were assayed in the presence of 0.01% Triton X-100.

## CC1=NN(c2cccc(C(=O)O)c2)C(=O)C1=Cc1ccc(-c2cc(C)c(C)cc2[N+](=O)[O-])o1 [Compound 6e, 3-(4,5-dihydro-3-methyl-4-((5-(4,5-dimethyl-2-nitrophenyl)furan-2-yl)methylene)-5-oxopyrazol-1-yl)benzoic acid]
p300 HAT [1]
  p300 HAT inhibition, result in words (analogs compared with C646): well tolerated
other
  melting point: 260 to 262 °C

## Cc1ccc(C(=O)Nc2cccc([N+](=O)[O-])c2)cc1S(=O)(=O)Nc1cccc(C(=O)O)c1 [Compound 5913514]
p300 HAT [2]
  % inhibition in initial screen: 0.0%

## O=C(O)CCC(=O)Nc1ccc(-c2nc3cc(Cl)ccc3o2)cc1 [Compound 6786461]
p300 HAT [2]; 0.2 units α-KGDH (two times)
  % inhibition with 2x coupling enz: 100.0%
p300 HAT [2]; aggregation control, 0.01% Triton X-100
  % inhibition with .01% Triton X-100: 58.2%
p300 HAT [2]
  % inhibition in initial screen: 66.6%
p300 HAT [1]; 25 uM
  % inhibition at 25 uM in radioactive assay: 0.0%

## COc1ccc(C(CC(=O)O)c2ccc(OC)c(OC)c2)cc1OC [Compound 6971425]
p300 HAT [2]
  % inhibition in initial screen: 0.0%

## COc1ccc(CCNC(=O)c2ccccc2[N+](=O)[O-])cc1OC [Compound 5693758]
p300 HAT [2]
  % inhibition in initial screen: 0.0%

## O=C(O)c1ccc(Br)c(S(=O)(=O)Nc2ccc(NC(=O)c3ccccc3)cc2)c1 [Compound 5913665]
p300 HAT [2]
  % inhibition in initial screen: 0.0%

## O=C(CSC1CC(=O)N(c2ccc(C(=O)O)cc2)C1=O)Nc1ccc(F)cc1 (stereo not shown) [Compound 5310308]
p300 HAT [2]
  % inhibition in initial screen: 0.0%

## Cc1nc(SCc2ccccc2)[nH]c(=O)c1CC(=O)O [Compound 6658754]
p300 HAT [2]
  % inhibition in initial screen: 0.0%

## COc1cccc(CNC(=O)C(=O)Nc2ccc(C(C)C)cc2)c1 [Compound 7076620]
p300 HAT [2]
  % inhibition in initial screen: 0.0%

## COc1ccc(N2C(=O)CC(SCC(=O)O)C2=O)cc1 (stereo not shown) [Compound 5109125]
p300 HAT [2]
  % inhibition in initial screen: 0.0%

## COC(=O)c1ccc(N2N=C(C)C(=Cc3ccc(-c4cc(C)c(C)cc4[N+](=O)[O-])o3)C2=O)cc1 [Compound 6h, Methyl 4-(4,5-dihydro-3-methyl-4-((5-(4,5-dimethyl-2-nitrophenyl)furan-2-yl)methylene)-5-oxopyrazol-1-yl)benzoate]
p300 HAT [1]
  weakening of p300 inhibitory potency compared with C646 (relative IC50): > 15 fold
other
  melting point: 214 to 216 °C

## CC1=NN(c2ccc(S(N)(=O)=O)cc2)C(=O)/C1=C\c1ccc(-c2cc(C)c(C)cc2[N+](=O)[O-])o1 [Compound 6g]
other
  melting point: 152 to 154 °C

## C=CCn1c(SCC(=O)O)nc2sc3c(c2c1=O)CCCC3 [Compound 5915918]
p300 HAT [2]
  % inhibition in initial screen: 0.0%

## COC(=O)c1cccc(N2N=C(C)/C(=C/c3ccc(-c4cc(C)c(C)cc4[N+](=O)[O-])o3)C2=O)c1 [Compound 6i, Methyl 3-(4,5-dihydro-3-methyl-4-((5-(4,5-dimethyl-2-nitrophenyl)furan-2-yl)methylene)-5-oxopyrazol-1-yl)benzoate]
p300 HAT [1]
  p300 HAT inhibition, result in words (analogs compared with C646): well tolerated
other
  melting point: 205 to 207 °C

## CC1=NN(c2ccc(C(N)=O)c(Cl)c2)C(=O)/C1=C\c1ccc(-c2cc(C)c(C)cc2[N+](=O)[O-])o1 [Compound 6b, 4-(4,5-dihydro-3-methyl-4-((5-(4,5-dimethyl-2-nitrophenyl)furan-2-yl)methylene)-5-oxopyrazol-1-yl)-2-chloro-benzamide]
other
  melting point: 267 to 269 °C

## Cc1cc(C)c(S(=O)(=O)N2CCCC(C(=O)O)C2)c(C)c1 (stereo not shown) [Compound 7188864]
p300 HAT [2]
  % inhibition in initial screen: 0.0%

## CC1=NN(c2ccc(C(=O)O)cc2)C(=O)/C1=C\c1ccc(-c2cc(C)c(C)cc2C#N)o1 [Compound 6o, 4-(4,5-dihydro-4-((5-(4,5-dimethyl-2-benzonitrile)furan-2-yl)methylene)-3-methyl-5-oxopyrazol-1-yl)-benzoic acid]
p300 HAT [1]
  p300 HAT inhibition, result in words (analogs compared with C646): well tolerated
other
  melting point: 295 to 297 °C

## CC(=O)c1ccc(NS(=O)(=O)c2cccc(C(=O)Nc3cccc(C(=O)O)c3)c2)cc1 [Compound 5917216]
p300 HAT [2]
  % inhibition in initial screen: 38.6%

## CC1=NN(c2ccc(C(N)=O)cc2)C(=O)C1=Cc1ccc(-c2cc(C)c(C)cc2[N+](=O)[O-])o1 [Compound 6a, 4-(4,5-dihydro-3-methyl-4-((5-(4,5-dimethyl-2-nitrophenyl)furan-2-yl)methylene)-5-oxopyrazol-1-yl)benzamide]
p300 HAT [1]
  p300 HAT inhibition, result in words (analogs compared with C646): well tolerated
other
  melting point: 273 to 275 °C

## COC(=O)c1cc(C)c(C)cc1-c1ccc(/C=C2/CC(=O)N(c3ccc(C(=O)O)cc3)C2=O)o1 [Compound 6r, 2-{5-[1-(4-Carboxy-phenyl)-2,5-dioxo-pyrrolidin-3-ylidenemethyl]-furan-2-yl}-4,5-dimethyl-benzoic acid methyl ester]
p300 HAT [1]
  p300 HAT inhibition, result in words (analogs compared with C646): retains potency for p300 inhibition
other
  melting point: 290 to 291 °C

## Cc1cc(-c2ccc(C(=O)c3c(C)nn(-c4ccc(C(=O)O)cc4)c3O)o2)c([N+](=O)[O-])cc1C [Compound 6q]
p300 HAT [1]
  weakening of p300 inhibitory potency compared with C646 (relative IC50): 6 fold

## O=C(O)CCSc1nc2ccccc2c(=O)[nH]1 [Compound 5485989]
p300 HAT [2]
  % inhibition in initial screen: 0.0%

## NC(=O)c1ccccc1NC(=O)CCC(=O)O [Compound 5317891]
p300 HAT [2]
  % inhibition in initial screen: 0.0%

## Cc1nc(=O)c(-c2ccccc2)c(C)n1-c1ccccc1C(=O)O [Compound 7261568]
p300 HAT [2]
  % inhibition in initial screen: 0.0%

## O=C(O)C1CCCN(S(=O)(=O)c2cccs2)C1 (stereo not shown) [Compound 7195131]
p300 HAT [2]
  % inhibition in initial screen: 0.0%

## O=C(O)CCSCC(=O)c1ccc(NS(=O)(=O)c2ccccc2)cc1 [Compound 7112743]
p300 HAT [2]
  % inhibition in initial screen: 0.0%

## COc1ccc(S(=O)(=O)N2CCCC(C(=O)O)C2)cc1 (stereo not shown) [Compound 7185124]
p300 HAT [2]
  % inhibition in initial screen: 0.0%

## CC1=NN(c2ccc(S(=O)(=O)O)cc2)C(=O)C1=Cc1ccc(-c2cc(C)c(C)cc2[N+](=O)[O-])o1 [Compound 6f]
p300 HAT [1]
  p300 HAT inhibition, result in words (analogs compared with C646): well tolerated

## COc1cccc(NC(=O)C(=O)NCCc2ccc(OC)c(OC)c2)c1 [Compound 5574003]
p300 HAT [2]
  % inhibition in initial screen: 0.0%

## O=C(O)c1cccc(NC(=O)c2cc(S(=O)(=O)Nc3cccc([N+](=O)[O-])c3)ccc2Cl)c1 [Compound 5915900]
p300 HAT [2]
  % inhibition in initial screen: 0.0%

## CCOC(=O)c1cc(C)c(C)cc1-c1ccc(/C=C2\C(=O)N(c3ccc(C(=O)O)cc3)N=C2C)o1 [Compound 6n, 4-(4,5-dihydro-4-((5-(4,5-dimethyl-2-ethylbenzoate)furan-2-yl)methylene)-3-methyl-5-oxopyrazol-1-yl)benzoic acid]
other
  melting point: 241 to 243 °C
